Reference: patent US5006342A, “Resilient transdermal drug delivery device” (Cygnus Corporation, priority 1989, dated 1991)

Assays:
[1] = E2 in vitro steady-state skin flux across human cadaver skin (diffusion cells, 32° C.); format: in vitro ADME
[2] = wearing study, E2 plasma levels in postmenopausal female subjects; format: in vivo, postmenopausal female subjects (human); settings: postmenopausal females
[3] = in vitro release of E2 (reciprocating dissolution apparatus, USP Test Dissolution Method V, 32° C.); settings: Example 1, 7-layer system, over 7 days
Description: The in vitro release of E2 from the 7-layer system was determined, using a reciprocating dissolution apparatus (USP Test Dissolution Method V) at 32° C., to be square-root-time-dependent over 7 days with a total cumulative release of 190 μg/cm^2 in 7 days (the flux was 14.66 μg/cm^2 /hr^1/2). The laminated composite was translucent and resilient, allowing the system to stretch with the stretching of skin when worn.

In vitro skin flux ([1]; Example 2, 7-layer, 14% PGML in L1): -0.15 μg/cm^2 /hr
In vitro skin flux ([1]; Example 3, 7-layer, Medifilm 810, E2 2.0% in L1 and 5.5% in L2): approximately 0.14 μg/cm^2 /hr
E2 skin flux ([1]; Example 4, 5-layer laminate (prepared similarly to Example 1)): -0.12 μg/cm^2 /hr
E2 skin flux ([1]; Example 5, 5-layer laminate (prepared similarly to Example 2)): ~ 0.15 μg/cm^2 /hr
flux from the 5-layer device ([1]; Examples 6 and 7, 5-layer device, Medifilm 810): -0.14 μg/cm^2 /hr
flux from the 5-layer device ([1]; Examples 8 and 9, 5-layer device, Medifilm 910): -0.11 μg/cm^2 /hr
constant plasma levels ([2]; Example 3, 30 cm^2 laminate, four day wearing, 5760 min): ~32 pg/mL
constant plasma concentration of E2 ([2]; Example 5, 30 cm^2 laminate, 7 day wearing): ~45 pg/mL
concentration at 96 h ([2]; human, plasma, topical or ocular, Example 3, 20 cm^2 laminate, four day wearing, read-out: constant plasma levels): ~0.025 ng/mL
concentration at 168 h ([2]; human, plasma, topical or ocular, Example 5, 20 cm^2 laminate, 7 day wearing, read-out: constant plasma concentration of E2): ~0.03 ng/mL
Compound: C[C@]12CC[C@@H]3c4ccc(O)cc4CC[C@H]3[C@@H]1CC[C@@H]2O [Example E2, estradiol]
in vitro release flux of E2 (square-root-time) [3]: 14.66 μg/cm^2 /hr^1/2
time dependence of in vitro release of E2 [3]: square-root-time-dependent
